One series has as its target T1, prethrombin-2 (Homo sapiens, UniProt P00734).
T1 construct: Zymogen serine proteases prethrombin-2 and Protein C were purchased from Haematologic Technologies, Inc; purchased Haematologic Technologies, Inc. (Essex Junction, Vt.)
Nature of the series: Zymogen serine protease activity assay (Ile-Pro-Arg-pNA hydrolysis). The format is biochemical. Conditions: 100 nM prethrombin-2, 2 mM Ile-Pro-Arg-pNA, peptide titration. The procedure:
(§1) Zymogen serine proteases prethrombin-2 and Protein C were purchased from Haematologic Technologies, Inc. (Essex Junction, Vt.). Kinetic assays were carried out in 20 mM Hepes, 150 mM NaCl, 5 mM CaCl2, 0.01% Triton X-100, pH 7.2. All reactions contained 100 nM of enzyme plus 2 mM Ile-Pro-Arg-pNA substrate. IVGG.147A was titrated and the initial rates of substrate hydrolysis were measured in clear bottom 96-well plates using 405 nm absorbance on a SpectraMax Plus (Molecular Devices, Inc.).
(§2) The IVGG.14 peptide activator of pro-HGF took advantage of the canonical trypsin-like activation mechanism in order to allosterically activate binding of the serine protease-like domain within pro-HGF to Met. Given this activation mechanism is highly conserved among zymogens of the trypsin-like family of serine proteases and the fact that these proteins share a high degree of structural homology within the serine protease-like domains as well as the activation pockets, ZAPs for pro-HGF were analyzed for ability allosterically activate other zymogen serine proteases.

The next series concerns the target T2, Protein C (Homo sapiens, UniProt P04070).
T2 construct: purchased Haematologic Technologies, Inc. (Essex Junction, Vt.)
The description is as above. The class given is biochemical. Conditions: 100 nM Protein C, 2 mM Ile-Pro-Arg-pNA, peptide titration. The procedure:
as §1, §2

The nature of a further series: Peptide solubility. The class given is physicochemical.
Series [1] addresses T3, scHGF (Homo sapiens, UniProt P14210, R494E). Nature of the series: In vitro wound closure assay, HeLa cell migration in the presence of scHGF. The note with it: HeLa cells, scHGF present, read-out: EC50 of HeLa cell migration response. The format is cell-based. More on the design: Full-length recombinant HGF proteins were expressed in 1-liter fermentation cultures of Chinese hamster ovary (CHO) cells; made in house; host or cells: CHO cells (scHGF); Met is endogenous in HeLa cells. The text has this: (§3) Cellular assays were used to address whether the optimized ZAPtides act as allosteric activators of pro-HGF and stimulate Met signaling in biologically relevant settings of cell survival and migration. […] Importantly, ZAPtides required the presence of scHGF as well as induced […] cell survival that was antagonized by an HGF-blocking anti-Met antibody, each confirming Met pathway selectivity.

The target in series [2] is T3, scHGF. Nature of the series: BxPC-3 cell survival assay, peptide titrations in the presence of scHGF. More on the design: Full-length recombinant HGF proteins were expressed in 1-liter fermentation cultures of Chinese hamster ovary (CHO) cells; made in house; host or cells: CHO cells (scHGF). The note with it: BxPC-3 cells, serum starvation, 72 h, alamar Blue; read-out: EC50 of activation of scHGF, cell survival. The class given is cell-based. The procedure:
BxPC-3 cells were obtained from ATCC and maintained in cell culture medium (RPMI, 10% FBS (Sigma), 50 U/ml penicillin/50 μg/ml streptomycin, 2 mM glutamine). For the survival assay, cells were plated at 10,000 cells/well in 96 well tissue culture plates (Falcon 353072) in 50 μl assay diluent (RPMI, 0.1% BSA (Sigma) 50 U/ml penicillin/50 μg/ml streptomycin, 2 mM glutamine). Cells were allowed to attach for 1-2 h in a 37° C. CO2 incubator. Human HGF proteins (HGF, scHGF or scHGF plus peptide titrations) were pre-incubated at room temperature in assay diluent. HGF/peptide mixtures were added to cells in microtiter plates in triplicate at 50 μl per well and plates were incubated at 37° C. in a CO2 incubator. Final concentrations of HGF variants were 400 ng/ml and peptide concentrations were titrated accordingly. After 72 h, 25 μl alamar Blue (Serotec, BUF012B) was added to each well and incubate an additional 2 h at 37° C. in a CO2 incubator. Plates were agitated vigorously for 10 min at room temperature, and fluorescence was read at 530-590 nm in a fluorescent plate reader.
Using Bx-PC3 cells, peptide titrations in the presence of scHGF were performed and observed robust activation was seen of scHGF signaling through Met, which reached levels equivalent HGF-induced signaling.
as §3

The target of series [3] is zymogen-like pro-MSP β-chain (zMSP β). Nature of the series: Activation of zMSP β binding to RON. The note with it: activation of zMSP β to bind RON. The procedure: The phage approach was also tested against pro-Macrophage Stimulating Protein (pro-MSP), another plasminogen-related growth factor, which, following proteolytic cleavage, signals through the RON receptor, having important roles in inflammation and cancer. Using a new cyclic library based on ZAP.03 (ZAPtide3 Library) and the described selection method a ZAPtide was discovered, ZAP3.2 that was specific for activating the zymogen-like pro-MSP β-chain (zMSP β) to bind RON with an AC50 of 134 μM.

Where a SMILES comes first, the peptide text is derived from it. Bridges are numbered along the chain shown (N, C = ends). Where no end group is shown, it is not given here.

T3 sequence (P14210 32-728 R494E): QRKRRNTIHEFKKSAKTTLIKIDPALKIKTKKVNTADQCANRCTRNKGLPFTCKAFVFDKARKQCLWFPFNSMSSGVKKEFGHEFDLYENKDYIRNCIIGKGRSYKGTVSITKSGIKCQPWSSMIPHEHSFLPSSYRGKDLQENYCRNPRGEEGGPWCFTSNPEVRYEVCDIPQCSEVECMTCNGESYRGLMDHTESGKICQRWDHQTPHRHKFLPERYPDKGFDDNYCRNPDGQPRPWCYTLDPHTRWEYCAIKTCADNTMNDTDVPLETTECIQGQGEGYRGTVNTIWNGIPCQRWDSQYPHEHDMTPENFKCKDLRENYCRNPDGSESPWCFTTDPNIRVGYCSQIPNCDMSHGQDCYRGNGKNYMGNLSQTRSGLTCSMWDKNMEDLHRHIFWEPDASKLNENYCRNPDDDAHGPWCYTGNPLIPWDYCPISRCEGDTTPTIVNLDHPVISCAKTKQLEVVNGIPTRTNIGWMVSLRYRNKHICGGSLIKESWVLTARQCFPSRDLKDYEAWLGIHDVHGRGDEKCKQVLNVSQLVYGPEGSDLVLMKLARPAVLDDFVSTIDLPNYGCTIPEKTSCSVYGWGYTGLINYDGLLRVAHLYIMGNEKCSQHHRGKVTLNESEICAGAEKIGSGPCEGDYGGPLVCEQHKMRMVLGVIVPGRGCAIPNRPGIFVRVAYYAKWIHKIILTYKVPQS
T2 sequence (P04070 19-461 limits assumed): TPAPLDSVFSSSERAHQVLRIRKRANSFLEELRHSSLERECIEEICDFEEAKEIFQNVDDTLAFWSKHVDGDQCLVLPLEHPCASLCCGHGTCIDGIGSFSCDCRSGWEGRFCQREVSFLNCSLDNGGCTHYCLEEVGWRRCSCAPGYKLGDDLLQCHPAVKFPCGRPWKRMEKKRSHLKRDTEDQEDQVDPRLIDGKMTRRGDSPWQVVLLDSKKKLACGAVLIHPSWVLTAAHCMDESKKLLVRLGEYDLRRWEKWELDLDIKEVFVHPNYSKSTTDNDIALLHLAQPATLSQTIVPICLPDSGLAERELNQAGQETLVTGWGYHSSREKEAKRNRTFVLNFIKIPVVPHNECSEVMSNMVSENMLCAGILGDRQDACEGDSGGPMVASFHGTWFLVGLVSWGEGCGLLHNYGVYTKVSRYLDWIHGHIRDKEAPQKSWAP

Regarding `CC[C@H](C)[C@H](N)C(=O)N[C@H](C(=O)NCC(=O)NCC(=O)N[C@@H](Cc1ccc(O)cc1)C(=O)N1CCC[C@H]1C(=O)N[C@@H](C)C(=O)N[C@@H](Cc1c[nH]c2ccccc12)C(=O)N[C@@H](CCSC)C(=O)N[C@@H](CC(=O)O)C(=O)N[C@H](C(N)=O)C(C)C)C(C)C` [IVGG.147A, I V G G Y P A W M D V] (H-IVGGYPAWMDV-NH2; N-terminus assumed), the “initial rate of substrate hydrolysis (Vi)” value at prethrombin-2 and on Protein C was “significantly increased” each time. Also, the “solubility, in words” value in “Peptide solubility” is listed as “exceptionally soluble”.
In the case of `CC[C@H](C)[C@H](N)C(=O)N[C@H](C(=O)NCC(=O)NCC(=O)N[C@H]1CSSC[C@@H](C(=O)N[C@H](C(N)=O)[C@@H](C)CC)NC(=O)[C@H](CCC(=O)O)NC(=O)[C@H](CCC(=O)O)NC(=O)[C@H](CCCNC(=N)N)NC(=O)[C@H](CC(=O)O)NC(=O)[C@H](CCSC)NC(=O)[C@H](Cc2c[nH]c3ccccc23)NC(=O)[C@H](Cc2ccc(O)cc2)NC(=O)[C@@H]2CCCN2C1=O)[C@@H](C)CC` [ZAP.03, I I G G C P Y W M D R E E C I] (H-IIGGCPYWMDREECI-NH2; disulfide 5-14), the values for the EC50 at scHGF [1] and on scHGF [2] were 60 nM and 400 nM, respectively.
The term AC50 denotes the midpoint of the concentration-response curve, whichever way the signal moves. Read a low AC50 as greater potency. As for “ZAP3.2: ZAPtide from the cyclic ZAPtide3 Library based on ZAP.03, activating zymogen-like pro-MSP β-chain (zMSP β) to bind RON (IVGGEPVWYVW; not fully specified)”, half-maximal activity in series [3] (AC50) was put at 134000 nM.

The values above are taken from patent US8623821B2, “Zymogen activators” (Genentech, Inc., priority 2011, dated 2014).
